Data reported in patent US20090018111A1, “Novel Antimicrobial Medicament” (priority 2004, published 2009).
Like-named read-outs stand apart in the source and are kept apart here.

Columns and labels:
Experiment in all cases: Sensitivity test (agar dilution)
[1] = test system: B. subtilis ATCC6633; type: cell-based, Bacillus subtilis; settings: Bacillus subtilis
Outline: (§1)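 Strains were grown overnight at 37° C, brought to about 10^6 CFU/ml in gelatin-buffered saline, and ~5 μl inoculated onto MHA plates carrying two-fold dilution series of the test drug alone or in combination, following the Japan Chemotherapeutic Society agar dilution standard.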

[2] = test system: E. coli NIHJ JC-2; type: cell-based, Escherichia coli; settings: Escherichia coli
Outline: as §1

[3] = test system: K. pneumoniae ATCC10031; type: cell-based, Klebsiella pneumoniae; settings: Klebsiella pneumoniae
Outline: as §1

[4] = test system: P. vulgaris GN7919; type: cell-based, Proteus vulgaris; settings: Proteus vulgaris
Outline: as §1

[5] = test system: P. vurgalis OX-19; type: cell-based, Proteus vulgaris; settings: Proteus vulgaris
Outline: as §1

[6] = test system: E. aerogenes ATCC13048; type: cell-based, Enterobacter aerogenes; settings: Klebsiella aerogenes
Outline: as §1

[7] = test system: S. maltophilia IID1275; type: cell-based, Stenotrophomonas maltophilia; settings: Stenotrophomonas maltophilia
Outline: as §1

C[C@H]1C=C(c2csc(SC3=C(C(=O)O)N4C(=O)[C@H]([C@@H](C)O)[C@H]4[C@H]3C)n2)CN1 [SM, (4R,5S,6S)-6-[(1R)-1-Hydroxyethyl]-4-methyl-3-({4-[(5S)-5-methyl-2,5-dihydro-1H-pyrrol-3-yl]-1,3-thiazol-2-yl}sulfanyl)-7-oxo-1-azabicyclo[3.2.0]hept-2-ene-2-carboxylic acid]
MIC ([1]; ATCC6633, Concomitant (CPFX:SM = 1:1), B. subtilis ATCC6633, read-out: MIC concomitant): 4 ng/mL | MIC ([1]; ATCC6633, Concomitant (DRPM:SM = 1:1), B. subtilis ATCC6633, read-out: MIC concomitant): ≤ 2 ng/mL | MIC ([1]; ATCC6633, Concomitant (IPM:SM = 1:1), read-out: MIC): ≤ 2 ng/mL | MIC ([1]; ATCC6633, Concomitant (MEPM:SM = 1:1), read-out: MIC): ≤ 16 ng/mL | MIC ([1]; ATCC6633, Concomitant (MEPM:SM = 1:2), read-out: MIC): ≤ 31 ng/mL | MIC ([1]; ATCC6633, Concomitant (MEPM:SM = 1:4), read-out: MIC): ≤ 63 ng/mL | MIC ([1]; ATCC6633, Concomitant (PAPM:SM = 1:1), B. subtilis ATCC6633, read-out: MIC concomitant): ≤ 2 ng/mL | MIC ([1]; ATCC6633, Concomitant (PIPC:SM = 1:1), B. subtilis ATCC6633, read-out: MIC concomitant): ≤ 2 ng/mL | MIC ([1]; ATCC6633, Concomitant drug (MEPM:SM = 2:1), read-out: MIC): ≤ 8 ng/mL | MIC ([1]; ATCC6633, alone, read-out: MIC): ≤ 8 ng/mL | MIC ([1]; ATCC6633, drug alone, B. subtilis ATCC6633, read-out: MIC alone): 4 ng/mL | MIC ([2]; NIHJJC2, Concomitant (AZT:SM = 1:1), E. coli NIHJ JC-2, read-out: MIC concomitant): 0.063 µg/mL | MIC ([2]; NIHJJC2, Concomitant (BIPM:SM = 1:1), E. coli NIHJ JC-2, read-out: MIC concomitant): 0.031 µg/mL | MIC ([2]; NIHJJC2, Concomitant (CAZ:SM = 1:1), E. coli NIHJ JC-2, read-out: MIC concomitant): 0.063 µg/mL | MIC ([2]; NIHJJC2, Concomitant (CPFX:SM = 1:1), E. coli NIHJ JC-2, read-out: MIC concomitant): ≤ 0.002 µg/mL | MIC ([2]; NIHJJC2, Concomitant (DRPM:SM = 1:1), E. coli NIHJ JC-2, read-out: MIC concomitant): 0.016 µg/mL | MIC ([2]; NIHJJC2, Concomitant (IPM:SM = 1:1), read-out: MIC): 0.063 µg/mL | MIC ([2]; NIHJJC2, Concomitant (MEPM:SM = 1:1), read-out: MIC): ≤ 0.016 µg/mL | MIC ([2]; NIHJJC2, Concomitant (MEPM:SM = 1:2), read-out: MIC): ≤ 0.031 µg/mL | MIC ([2]; NIHJJC2, Concomitant (MEPM:SM = 1:4), read-out: MIC): ≤ 0.063 µg/mL | MIC ([2]; NIHJJC2, Concomitant (PAPM:SM = 1:1), E. coli NIHJ JC-2, read-out: MIC concomitant): 0.063 µg/mL | MIC ([2]; NIHJJC2, Concomitant (PIPC:SM = 1:1), E. coli NIHJ JC-2, read-out: MIC concomitant): 0.063 µg/mL | MIC ([2]; NIHJJC2, Concomitant drug (MEPM:SM = 2:1), read-out: MIC): ≤ 0.008 µg/mL | MIC ([2]; NIHJJC2, alone, read-out: MIC): 0.125 µg/mL | MIC ([2]; NIHJJC2, drug alone, E. coli NIHJ JC-2, read-out: MIC alone): 0.125 µg/mL | MIC ([3]; ATCC10031, Concomitant (AZT:SM = 1:1), K. pneumoniae ATCC10031, read-out: MIC concomitant): 0.004 µg/mL | MIC ([3]; ATCC10031, Concomitant (BIPM:SM = 1:1), K. pneumoniae ATCC10031, read-out: MIC concomitant): 0.016 µg/mL | MIC ([3]; ATCC10031, Concomitant (CAZ:SM = 1:1), K. pneumoniae ATCC10031, read-out: MIC concomitant): 0.008 µg/mL | MIC ([3]; ATCC10031, Concomitant (CPFX:SM = 1:1), K. pneumoniae ATCC10031, read-out: MIC concomitant): ≤ 0.002 µg/mL | MIC ([3]; ATCC10031, Concomitant (DRPM:SM = 1:1), K. pneumoniae ATCC10031, read-out: MIC concomitant): 0.008 µg/mL | MIC ([3]; ATCC10031, Concomitant (IPM:SM = 1:1), read-out: MIC): 0.031 µg/mL | MIC ([3]; ATCC10031, Concomitant (MEPM:SM = 1:1), read-out: MIC): ≤ 0.016 µg/mL | MIC ([3]; ATCC10031, Concomitant (MEPM:SM = 1:2), read-out: MIC): ≤ 0.031 µg/mL | MIC ([3]; ATCC10031, Concomitant (MEPM:SM = 1:4), read-out: MIC): ≤ 0.063 µg/mL | MIC ([3]; ATCC10031, Concomitant (PAPM:SM = 1:1), K. pneumoniae ATCC10031, read-out: MIC concomitant): 0.016 µg/mL | MIC ([3]; ATCC10031, Concomitant (PIPC:SM = 1:1), K. pneumoniae ATCC10031, read-out: MIC concomitant): 0.016 µg/mL | MIC ([3]; ATCC10031, Concomitant drug (MEPM:SM = 2:1), read-out: MIC): ≤ 0.008 µg/mL | MIC ([4]; GN7919, Concomitant (AZT:SM = 1:1), P. vulgaris GN7919, read-out: MIC concomitant): 0.25 µg/mL | MIC ([4]; GN7919, Concomitant (BIPM:SM = 1:1), P. vulgaris GN7919, read-out: MIC concomitant): 0.25 µg/mL | MIC ([4]; GN7919, Concomitant (CAZ:SM = 1:1), P. vulgaris GN7919, read-out: MIC concomitant): 0.5 µg/mL | MIC ([4]; GN7919, Concomitant (CPFX:SM = 1:1), P. vulgaris GN7919, read-out: MIC concomitant): 0.016 µg/mL | MIC ([4]; GN7919, Concomitant (DRPM:SM = 1:1), P. vulgaris GN7919, read-out: MIC concomitant): 0.063 µg/mL | MIC ([4]; GN7919, Concomitant (IPM:SM = 1:1), read-out: MIC): 0.5 µg/mL | MIC ([4]; GN7919, Concomitant (MEPM:SM = 1:1), read-out: MIC): 0.031 µg/mL | MIC ([4]; GN7919, Concomitant (MEPM:SM = 1:2), read-out: MIC): 0.063 µg/mL | MIC ([4]; GN7919, Concomitant (MEPM:SM = 1:4), read-out: MIC): 0.125 µg/mL | MIC ([4]; GN7919, Concomitant (PAPM:SM = 1:1), P. vulgaris GN7919, read-out: MIC concomitant): 0.5 µg/mL | MIC ([4]; GN7919, Concomitant (PIPC:SM = 1:1), P. vulgaris GN7919, read-out: MIC concomitant): 0.5 µg/mL | MIC ([4]; GN7919, Concomitant drug (MEPM:SM = 2:1), read-out: MIC): 0.016 µg/mL | MIC ([4]; GN7919, alone, read-out: MIC): 1 µg/mL | MIC ([4]; GN7919, drug alone, P. vulgaris GN7919, read-out: MIC alone): 1 µg/mL | MIC ([5]; OX19, Concomitant (IPM:SM = 1:1)): 0.063 µg/mL | MIC ([5]; OX19, Concomitant (MEPM:SM = 1:1)): ≤ 0.016 µg/mL | MIC ([5]; OX19, Concomitant (MEPM:SM = 1:2)): ≤ 0.031 µg/mL | MIC ([5]; OX19, Concomitant (MEPM:SM = 1:4)): ≤ 0.063 µg/mL | MIC ([5]; OX19, Concomitant drug (MEPM:SM = 2:1)): 0.016 µg/mL | MIC ([5]; OX19, alone): 0.063 µg/mL | MIC ([5]; OX19, read-out: MIC concomitant, Concomitant (AZT:SM = 1:1), P. vurgalis OX-19): 0.004 µg/mL | MIC ([5]; OX19, read-out: MIC concomitant, Concomitant (BIPM:SM = 1:1), P. vurgalis OX-19): 0.031 µg/mL | MIC ([5]; OX19, read-out: MIC concomitant, Concomitant (CAZ:SM = 1:1), P. vurgalis OX-19): 0.008 µg/mL | MIC ([5]; OX19, read-out: MIC concomitant, Concomitant (CPFX:SM = 1:1), P. vurgalis OX-19): 0.008 µg/mL | MIC ([5]; OX19, read-out: MIC concomitant, Concomitant (DRPM:SM = 1:1), P. vurgalis OX-19): 0.031 µg/mL | MIC ([5]; OX19, read-out: MIC concomitant, Concomitant (PAPM:SM = 1:1), P. vurgalis OX-19): 0.063 µg/mL | MIC ([5]; OX19, read-out: MIC concomitant, Concomitant (PIPC:SM = 1:1), P. vurgalis OX-19): ≤ 0.002 µg/mL | MIC ([6]; ATCC13048, Concomitant (AZT:SM = 1:1), E. aerogenes ATCC13048, read-out: MIC concomitant): 8 µg/mL | MIC ([6]; ATCC13048, Concomitant (BIPM:SM = 1:1), E. aerogenes ATCC13048, read-out: MIC concomitant): 0.063 µg/mL | MIC ([6]; ATCC13048, Concomitant (CAZ:SM = 1:1), E. aerogenes ATCC13048, read-out: MIC concomitant): 8 µg/mL | MIC ([6]; ATCC13048, Concomitant (CPFX:SM = 1:1), E. aerogenes ATCC13048, read-out: MIC concomitant): 0.031 µg/mL | MIC ([6]; ATCC13048, Concomitant (DRPM:SM = 1:1), E. aerogenes ATCC13048, read-out: MIC concomitant): 0.031 µg/mL | MIC ([6]; ATCC13048, Concomitant (IPM:SM = 1:1), read-out: MIC): 0.125 µg/mL | MIC ([6]; ATCC13048, Concomitant (MEPM:SM = 1:1), read-out: MIC): ≤ 0.016 µg/mL | MIC ([6]; ATCC13048, Concomitant (MEPM:SM = 1:2), read-out: MIC): 0.063 µg/mL | MIC ([6]; ATCC13048, Concomitant (MEPM:SM = 1:4), read-out: MIC): 0.125 µg/mL | MIC ([6]; ATCC13048, Concomitant (PAPM:SM = 1:1), E. aerogenes ATCC13048, read-out: MIC concomitant): 0.25 µg/mL | MIC ([6]; ATCC13048, Concomitant (PIPC:SM = 1:1), E. aerogenes ATCC13048, read-out: MIC concomitant): 8 µg/mL | MIC ([6]; ATCC13048, Concomitant drug (MEPM:SM = 2:1), read-out: MIC): 0.016 µg/mL | MIC ([6]; ATCC13048, alone, read-out: MIC): 8 µg/mL | MIC ([6]; ATCC13048, drug alone, E. aerogenes ATCC13048, read-out: MIC alone): 8 µg/mL | MIC ([7]; IID1275, Concomitant (AZT:SM = 1:1), S. maltophilia IID1275, read-out: MIC concomitant): > 32 µg/mL | MIC ([7]; IID1275, Concomitant (BIPM:SM = 1:1), S. maltophilia IID1275, read-out: MIC concomitant): > 32 µg/mL | MIC ([7]; IID1275, Concomitant (CAZ:SM = 1:1), S. maltophilia IID1275, read-out: MIC concomitant): > 32 µg/mL | MIC ([7]; IID1275, Concomitant (CPFX:SM = 1:1), S. maltophilia IID1275, read-out: MIC concomitant): 1 µg/mL | MIC ([7]; IID1275, Concomitant (DRPM:SM = 1:1), S. maltophilia IID1275, read-out: MIC concomitant): > 32 µg/mL | MIC ([7]; IID1275, Concomitant (IPM:SM = 1:1), read-out: MIC): > 32 µg/mL | MIC ([7]; IID1275, Concomitant (MEPM:SM = 1:1), read-out: MIC): > 32 µg/mL | MIC ([7]; IID1275, Concomitant (MEPM:SM = 1:2), read-out: MIC): > 64 µg/mL | MIC ([7]; IID1275, Concomitant (MEPM:SM = 1:4), read-out: MIC): > 128 µg/mL | MIC ([7]; IID1275, Concomitant (PAPM:SM = 1:1), S. maltophilia IID1275, read-out: MIC concomitant): > 32 µg/mL | MIC ([7]; IID1275, Concomitant (PIPC:SM = 1:1), S. maltophilia IID1275, read-out: MIC concomitant): > 32 µg/mL | MIC ([7]; IID1275, Concomitant drug (MEPM:SM = 2:1), read-out: MIC): > 16 µg/mL | MIC ([7]; IID1275, drug alone, S. maltophilia IID1275, read-out: MIC alone): > 32 µg/mL
